US20010011082A1, “Parenteral bisphosphonate composition with improved local tolerance” (priority 2000, published 2001)

Key:
[1] = Local tolerance test: s.c. injection of bisphosphonate solution pH 7.4 with and without chelating agent, swelling score and diameter of subcutaneous lesions at necropsy; settings: for adverse local reaction at the application sites: additional bivalent cation chelator in bisphosphonate formulation, compared with corresponding formulation without chelator; for severity of subcutaneous findings at necropsy / intensity and duration of local swelling at the injection site: chelating agent in injectable formulations of alendronate or ibandronate; for severity of subcutaneous findings at necropsy: necropsy after 9 days; for intensity and duration of local swelling at the injection site: observed over 9 days
Method: (§1) Groups of 3 rats were treated with test formulations containing 1 mg ibandronate/ml physiological saline buffered at pH 7.4. One group of rats received the test formulation without any additional additive, another group received the test solution with 1 mg EDTA/ml as an additive. The back of the rat was shaved one day before treatment. A volume of 0.5 ml each was injected subcutaneously at three different sites of the right part of shaved back. The left side of the back was treated with the corresponding formulation without ibandronate (placebo). Local reactions were assessed by a scoring system for swelling: 0=no reaction, 0.5=barely perceptible swelling, 1=slight swelling, 2=moderate swelling, 3=marked swelling, 4=severe swelling. The animals were observed over 9 days and thereafter necropsied. At necropsy, the diameter of subcutaneous lesions, mainly consisting of reddening or swelling, was measured.
(§2) The same study design as described in example 1 was applied to examine the concentration dependence of the EDTA effect. EDTA was added at concentrations of 0.1, 1.0 and 10 mg/ml.
(§3) DTPA was added at a concentration of 10 mg/ml.
(§4) The same study design as described in example 1 was applied to examine the efficacy of EDTA on local reaction to s.c. injected alendronate. The test formulations contained 3 mg alendronate/ml physiological saline buffered at pH 7.4. EDTA was added at a concentration of 10 mg/ml.

[2] = rat, in vivo, pH 7.4
Method: as §1, §2, §3, §4

Structure (SMILES): O=C(O)CN(CCN(CC(=O)O)CC(=O)O)CCN(CC(=O)O)CC(=O)O [DTPA, diethylenetriaminepentaacetic acid]
- efficacy of DTPA as chelating agent on local reaction ([1]; 1 mg ibandronate/ml pH 7.4, DTPA 10 mg/ml, s.c.): could also be demonstrated
- adverse local reaction at the application sites [1]: substantially improved
- severity of subcutaneous findings at necropsy ([1]; s.c.): reduces
- intensity and duration of local swelling at the injection site ([1]; s.c.): reduces

Structure (SMILES): O=C(O)CN(CCN(CC(=O)O)CC(=O)O)CC(=O)O [EDTA, ethylenediaminetetraacetic acid]
- effect on local adverse reactions at lowest ratio ([1]; 1 mg ibandronate/ml pH 7.4, molar ibandronate to EDTA ratio 1:0.1 (EDTA 0.1 mg/ml)): still some beneficial effect
- local adverse reactions at highest ratio ([1]; 1 mg ibandronate/ml pH 7.4, molar ibandronate to EDTA ratio 1:10 (EDTA 10 mg/ml)): still not completely abolished
- effect of EDTA on alendronate induced local reaction ([1]; 3 mg alendronate/ml physiological saline pH 7.4, EDTA 10 mg/ml, s.c.): could also be demonstrated
- adverse local reaction at the application sites [1]: substantially improved
- severity of subcutaneous findings at necropsy ([1]; s.c.): reduces
- intensity and duration of local swelling at the injection site ([1]; s.c.): reduces
- improving effect of EDTA on local tolerance (dose dependence) [2]: dose-related
